In assay [1] the test system is experimental hepatopathy models prepared by administering carbon tetrachloride. The assay can be described thus: Inhibitory action on hepatopathy in hepatopathy models by carbon tetrachloride (lipid emulsion; serum GPT and GOT). It is filed as in vivo, ddY strain male mice. The conditions noted are these: Mus musculus, iv, 20 h, i.v., one hour before carbon tetrachloride; for inhibition in vivo at 0.001 mg/kg: dose 1 μg/kg; for inhibition in vivo at 0.01 mg/kg: dose 10 μg/kg; for inhibition in vivo at 0.0001 mg/kg: dose 0.1 μg/kg. Here is the method: Carbon tetrachloride was diluted with olive oil to a concentration of 0.5% when administered. The present isoprenylamine derivatives were formulated into the lipid emulsions according to the method described in Pharmaceutical Example 8 and intravenously administered at a dose of 0.1-10 μg/kg one hour before the administration of carbon tetrachloride. 20 hours after the administration of carbon tetrachloride, blood samples were collected from animals under ether anesthesia and centrifuged. Then, serum GPT and GOT were determined and the respective inhibition rates were calculated on the bases of the serum GPT and GOT values obtained when the present isoprenylamine derivative was not administered being defined as 100, respectively.

Assay [2] concerns experimental hepatopathy models prepared by D-galactosamine administration. In words: Inhibitory action on hepatopathy in hepatopathy models by D-galactosamine (serum GPT and GOT). The class given is in vivo, Wistar strain male mice. The conditions noted are these: iv, 24 h, 2 hours after D-galactosamine; for inhibition in vivo at 0.01 mg/kg / inhibition in vivo at 0.03 mg/kg: lipid emulsion, i.v.; for inhibition in vivo at 0.01 mg/kg: dose 10 μg/kg; for inhibition in vivo at 0.03 mg/kg: dose 30 μg/kg; for inhibition in vivo at 3 mg/kg: dissolved in distilled water, dose 3000 μg/kg. The procedure: In these tests, GPT (glutamic-pyruvic transaminase) and GOT (glutamic-oxaloacetic transaminase) were determined using kits for the determination of GPT and GOT upon the method by U. Lippi et al., Iatrozyme TA-Lq (available from Iatron Laboratories Inc.), wherein the NADH formed when enzymes act upon substrates can reduce nitrotetrazolium blue (NTB) via 1-methoxy-5-methylphenazinium methylsulfate (1-methoxy PMS) to form formazan, which is then subjected to colorimetric analysis at a wavelength of 560 nm.
Inhibitory action of lipid emulsions containing the present isoprenylamine derivatives was evaluated by inhibition rates of GPT and GOT in experimental hepatopathy models prepared by D-galactosamine administration.
The experimental hepatopathy model was prepared by intraperitoneal administration of D-galactosamine at 400 mg/kg to Wistar strain male […] weighing about 170 g. The present isoprenylamine derivative was formulated to a lipid emulsion according to the method described in Pharmaceutical Example 8, and was intravenously administered at a dose of 10-30 μg/kg 2 hours after the administration of D-galactosamine.
24 hours after the D-galactosamine administration, blood samples were collected form animals under ether anesthesia and centrifuged. Then, serum GPT and GOT were determined and the respective inhibition rates were calculated on the bases of the serum GPT and GOT values obtained when the present isoprenylamine derivatives were not administered being defined as 100, respectively.
For comparison, glycyrrhizin ammonium (Tokyo Kasei Co.) dissolved in distilled water was administered in a similar manner to that for the isoprenylamine derivatives, blood sampling and determination were conducted and the serum GPT and GOT inhibition rates were calculated.

Structures can show the parent of a compound that is named as a salt. Where two headings read alike, the source gives them in different places.

Turning to `CC(C)=CCC/C(C)=C/CC/C(C)=C/CC/C(C)=C/CNCc1ccc2c(c1)OCO2` [Compound 1, N-geranylgeranylpiperonylamine hydrochloride], the inhibition in vivo at 0.001 mg/kg was determined as 13% in assay [1] (read-out: GOT inhibition) and 21% in assay [1] (read-out: GPT inhibition).

As to `CC(C)=CCC/C(C)=C/CC/C(C)=C/CC/C(C)=C/CC/C(C)=C/CNCc1ccc2c(c1)OCO2` [Compound 2, N-farnesylgeranylpiperonylamine hydrochloride], the inhibition in vivo at 0.01 mg/kg in assay [2] (read-out: GOT inhibition) and in assay [2] (read-out: GPT inhibition) was 23% each time.

With `CC(C)=CCC/C(C)=C/CC/C(C)=C/CC/C(C)=C/CC/C(C)=C/CC/C(C)=C/CNCc1ccc2c(c1)OCO2` [Compound 3, N-farnesylfarnesylpiperonylamine hydrochloride], the results for the inhibition in vivo at 0.01 mg/kg in assay [2] (read-out: GOT inhibition) and in assay [2] (read-out: GPT inhibition) were 21% and 20%, respectively.

With `CC(C)=CCC/C(C)=C/CC/C(C)=C/CC/C(C)=C/CC/C(C)=C/CC/C(C)=C/CC/C(C)=C/CC/C(C)=C/CNCc1ccc2c(c1)OCO2` [Compound 5, N-farnesylfarnesylgeranylpiperonylamine hydrochloride], the inhibition in vivo at 0.01 mg/kg in assay [2] (read-out: GOT inhibition) is 29%; in assay [2] (read-out: GPT inhibition) it was 27%.

Consider `CC(C)=CCC/C(C)=C/CC/C(C)=C/CC/C(C)=C/CC/C(C)=C/CC/C(C)=C/CC/C(C)=C/CC/C(C)=C/CC/C(C)=C/CNCc1ccccc1` [Compound 7, N-solanesylbenzylamine hydrochloride], for which the inhibition in vivo at 0.001 mg/kg in assay [1] (read-out: GOT inhibition) and in assay [1] (read-out: GPT inhibition) was 42% in each case.

As to `CC(C)=CCC/C(C)=C/CC/C(C)=C/CC/C(C)=C/CC/C(C)=C/CC/C(C)=C/CC/C(C)=C/CC/C(C)=C/CC/C(C)=C/CNCc1ccc(O)cc1` [Compound 8, N-solanesyl-4-hydroxybenzylamine hydrochloride], the results for the inhibition in vivo at 0.01 mg/kg in assay [1] (read-out: GOT inhibition) and in assay [1] (read-out: GPT inhibition) were 25% and 22%, respectively.

For `CC(C)=CCC/C(C)=C/CC/C(C)=C/CC/C(C)=C/CC/C(C)=C/CC/C(C)=C/CC/C(C)=C/CC/C(C)=C/CC/C(C)=C/CNCc1ccc(Cl)cc1` [Compound 9, N-solanesyl-4-chlorobenzylamine hydrochloride], the inhibition in vivo at 0.03 mg/kg in assay [2] (read-out: GOT inhibition) is 47%; in assay [2] (read-out: GPT inhibition), 53%.

As to `CC(C)=CCC/C(C)=C/CC/C(C)=C/CC/C(C)=C/CC/C(C)=C/CC/C(C)=C/CC/C(C)=C/CC/C(C)=C/CC/C(C)=C/CNCc1ccc(C)cc1` [Compound 10, N-solanesyl-4-methylbenzylamine hydrochloride], the inhibition in vivo at 0.03 mg/kg in assay [2] (read-out: GOT inhibition) came to 54%; in assay [2] (read-out: GPT inhibition), 63%.

Regarding `CC(C)=CCC/C(C)=C/CC/C(C)=C/CC/C(C)=C/CC/C(C)=C/CC/C(C)=C/CC/C(C)=C/CC/C(C)=C/CC/C(C)=C/CNCc1ccc(O)c(O)c1` [Compound 11, N-solanesyl-3,4-dihydroxybenzylamine hydrochloride], the values for the inhibition in vivo at 0.03 mg/kg in assay [2] (read-out: GOT inhibition) and in assay [2] (read-out: GPT inhibition) were 41% and 55%, respectively.

On to `COc1cc(CNC/C=C(\C)CC/C=C(\C)CC/C=C(\C)CC/C=C(\C)CC/C=C(\C)CC/C=C(\C)CC/C=C(\C)CC/C=C(\C)CCC=C(C)C)ccc1O` [Compound 12, N-solanesyl-4-hydroxy-3-methoxybenzylamine hydrochloride], for which the figures for the inhibition in vivo at 0.03 mg/kg in assay [2] (read-out: GOT inhibition) and in assay [2] (read-out: GPT inhibition) were 42% and 53%, respectively.

With `COc1ccc(CNC/C=C(\C)CC/C=C(\C)CC/C=C(\C)CC/C=C(\C)CC/C=C(\C)CC/C=C(\C)CC/C=C(\C)CC/C=C(\C)CCC=C(C)C)cc1OC` [Compound 13, N-solanesylveratrylamine hydrochloride], the inhibition in vivo at 0.0001 mg/kg in assay [1] (read-out: GOT inhibition) turned out to be 14%; in assay [1] (read-out: GPT inhibition) it was 21%.

With `COc1c(C)c(CNC/C=C(\C)CC/C=C(\C)CC/C=C(\C)CC/C=C(\C)CC/C=C(\C)CC/C=C(\C)CC/C=C(\C)CC/C=C(\C)CCC=C(C)C)c(OC)c(OC)c1OC` [Compound 14, N-solanesyl-2,3,4,5-tetramethoxy-6-methylbenzylamine hydrochloride], the inhibition in vivo at 0.03 mg/kg was 55% in assay [2] (read-out: GOT inhibition) and 64% in assay [2] (read-out: GPT inhibition).

Consider `CC(C)=CCC/C(C)=C/CC/C(C)=C/CC/C(C)=C/CC/C(C)=C/CC/C(C)=C/CC/C(C)=C/CC/C(C)=C/CC/C(C)=C/CNCc1ccc2c(c1)OCO2` [Compound 15, N-solanesylpiperonylamine malate], for which the inhibition in vivo at 0.01 mg/kg in assay [1] (read-out: GOT inhibition) is 18%; in assay [1] (read-out: GPT inhibition), 24%.

As to `CC(C)=CCC/C(C)=C/CC/C(C)=C/CC/C(C)=C/CC/C(C)=C/CC/C(C)=C/CC/C(C)=C/CC/C(C)=C/CC/C(C)=C/CNc1ccc2c(c1)OCO2` [Compound 16, N-solanesyl-(3,4-methylenedioxy)aniline hydrochloride], the inhibition in vivo at 0.03 mg/kg in assay [2] (read-out: GOT inhibition) was 48%; in assay [2] (read-out: GPT inhibition), 43%.

Take `CC(C)=CCC/C(C)=C/CC/C(C)=C/CC/C(C)=C/CC/C(C)=C/CC/C(C)=C/CC/C(C)=C/CC/C(C)=C/CC/C(C)=C/CNCCc1ccc2c(c1)OCO2` [Compound 17, N-Solanesyl-2-(3,4-methylenedioxyphenyl)ethylamine Hydrochloride]: the inhibition in vivo at 0.03 mg/kg in assay [2] (read-out: GOT inhibition) was determined as 24%; in assay [2] (read-out: GPT inhibition), 23%.

Regarding `CC(C)=CCC/C(C)=C/CC/C(C)=C/CC/C(C)=C/CC/C(C)=C/CC/C(C)=C/CC/C(C)=C/CC/C(C)=C/CC/C(C)=C/CNCCCc1ccc2c(c1)OCO2` [Compound 18, N-solanesyl-3-(3,4-methylenedioxyphenyl)propylamine hydrochloride], the inhibition in vivo at 0.03 mg/kg in assay [2] (read-out: GOT inhibition) came out at 22%; in assay [2] (read-out: GPT inhibition) it was 20%.

Take `CC(C)=CCC/C(C)=C/CC/C(C)=C/CC/C(C)=C/CC/C(C)=C/CC/C(C)=C/CC/C(C)=C/CC/C(C)=C/CC/C(C)=C/CN(C)Cc1ccc2c(c1)OCO2` [Compound 19, N-methyl-N-solanesylpiperonylamine]: the inhibition in vivo at 0.001 mg/kg turned out to be 43% in assay [1] (read-out: GOT inhibition) and 31% in assay [1] (read-out: GPT inhibition).

With `CC(C)=CCC/C(C)=C/CC/C(C)=C/CC/C(C)=C/CC/C(C)=C/CC/C(C)=C/CC/C(C)=C/CC/C(C)=C/CC/C(C)=C/CC/C(C)=C/CC/C(C)=C/CNCc1ccc2c(c1)OCO2` [Compound 21, N-undecaprenylpiperonylamine hydrochloride], the values for the inhibition in vivo at 0.001 mg/kg in assay [1] (read-out: GOT inhibition) and in assay [1] (read-out: GPT inhibition) were 38% and 33%, respectively.

In the case of `CC(C)=CCC/C(C)=C/CC/C(C)=C/CC/C(C)=C/CC/C(C)=C/CC/C(C)=C/CC/C(C)=C/CC/C(C)=C/CC/C(C)=C/CNCc1ccco1` [Compound 24, N-solanesyl-2-furfurylamine hydrochloride], the figures for the inhibition in vivo at 0.03 mg/kg in assay [2] (read-out: GOT inhibition) and in assay [2] (read-out: GPT inhibition) were 30% and 25%, respectively.

Take `CC(C)=CCC/C(C)=C/CC/C(C)=C/CC/C(C)=C/CC/C(C)=C/CC/C(C)=C/CC/C(C)=C/CC/C(C)=C/CC/C(C)=C/CNCc1cccs1` [Compound 25, N-solanesyl-2-thienylamine hydrochloride]: the inhibition in vivo at 0.03 mg/kg in assay [2] (read-out: GOT inhibition) came out at 32%; in assay [2] (read-out: GPT inhibition) it was 30%.

In the case of `CC(C)=CCC/C(C)=C/CC/C(C)=C/CC/C(C)=C/CC/C(C)=C/CC/C(C)=C/CC/C(C)=C/CC/C(C)=C/CC/C(C)=C/CNCc1cccnc1` [Compound 26, N-solanesyl-3-pyridylmethylamine dihydrochloride], the inhibition in vivo at 0.03 mg/kg amounted to 40% in assay [2] (read-out: GOT inhibition) and 35% in assay [2] (read-out: GPT inhibition).

As for `CC1(C)[C@@H](O[C@H]2O[C@H](C(=O)O)[C@@H](O)[C@H](O)[C@H]2O[C@@H]2O[C@H](C(=O)O)[C@@H](O)[C@H](O)[C@H]2O)CC[C@]2(C)[C@H]3C(=O)C=C4[C@@H]5C[C@@](C)(C(=O)O)CC[C@]5(C)CC[C@@]4(C)[C@]3(C)CC[C@@H]12` [Glycyrrhizin ammonium, glycyrrhizin ammonium, reference compound], the inhibition in vivo at 3 mg/kg in assay [2] (read-out: GOT inhibition) is 22%; in assay [2] (read-out: GPT inhibition) it was 25%.

For the origin of these results see patent US6048882A, “Prophylactic and therapeutic agent for hepatic diseases” (Nisshin Flour Milling Co., Ltd., priority 1995, dated 2000).
